From US20040266862A1, “Method of improving animal tissue quality by supplementing the animal diet with mixed tocotrienols” (priority 2003, published 2004)
Marks after values point to notes of the source that are not given here.

Tests used:
[1] = in vitro; compared with ATA; Kamat et al. 1997; cited from earlier work
swine [2] = assay: 2000-2001 swine feed test: 24 hour raw pork loin pH; type: in vivo; settings: for 24 hour raw pork loin pH, Increase vs. Control: overall ave.
Description: (§1) Applicants assessed the effects of antioxidant supplementation on meat quality in an experiment in which pork from pigs fed one of four dietary treatments was compared across three genetic lines differing in carcass leanness and intramuscular fat content. Ninety-six pigs were used in the test, thirty-two in each of the three genetic lines. Swine feeding was initiated in September 2000. At about 80 pounds body weight the 32 pigs of each of the three genetic lines were randomly allotted to individual pens. The pigs were fed corn/soy based diets formulated to provide adequate levels of all nutrients. In addition, one of four dietary treatments was assigned to each pen: control, 1,000 ppm NAC, 500 ppm LA and 150 ppm MT.
(§2) The pigs were harvested in November and December 2000 when they had reached an average weight of 260 pounds. Meat tissue quality evaluations occurred on Jan. 28, 2001. At the packing plant individual hot carcass weight, back fat depth and loin depth were measured and lean percent was calculated. Loin pH and loin color value (Minolta L*) were recorded 24 hours post mortem.

swine [3] = assay: 2000-2001 swine feed test: raw pork loin color (Minolta L*); type: in vivo
Description: as §1, §2
Minolta L* color value was measured objectively using a Minolta colorimeter. The Minolta L* value is an indication of the lightness of the pork loin. A lower value indicates a darker color and thus, higher quality.

swine [4] = settings: administered to swine; Berg, NPPC Project No. 99-164; cited from earlier work

Q: For alpha-tocotrienol, which antioxidant activity [1] is on record?
A: greater antioxidant activity than ATA

Q: With `CC(=O)N[C@@H](CS)C(=O)O` [NAC, N-acetylcysteine] as the compound, how does the “24 hour raw pork loin pH” value (swine [2]; Line 1 ave., 1,000 ppm in diet) read?
A: 6.07^b

Q: And the “24 hour raw pork loin pH” value (swine [2]; Line 2 ave., 1,000 ppm in diet)?
A: 5.78^a

Q: And the “24 hour raw pork loin pH” value (swine [2]; Line 3 ave., 1,000 ppm in diet)?
A: 5.93^c

Q: And the “24 hour raw pork loin pH” value (swine [2]; Overall ave. of three genetic lines, 1,000 ppm in diet)?
A: 5.93^b

Q: And the “24 hour raw pork loin pH, Increase vs. Control” value (swine [2]; 1,000 ppm in diet)?
A: 0.16

Q: And the “raw pork loin color, Minolta L* value” (swine [3]; Line 1 ave., 1,000 ppm in diet)?
A: 49.7

Q: And the “raw pork loin color, Minolta L* value” (swine [3]; Line 2 ave., 1,000 ppm in diet)?
A: 53.0

Q: And the “raw pork loin color, Minolta L* value” (swine [3]; Line 3 ave., 1,000 ppm in diet)?
A: 49.0

Q: What about the “raw pork loin color, Minolta L* value” (swine [3]; overall ave., 1,000 ppm in diet) of the same compound?
A: 50.5

Q: With `CC(C)=CCC/C(C)=C/CC/C(C)=C/CC[C@]1(C)CCc2cc(O)c(C)c(C)c2O1` [gamma-tocotrienol] as the compound, how does the antioxidant activity [1] read?
A: greater antioxidant activity than ATA

Q: What does the source list for `O=C(O)CCCCC1CCSS1` (stereo not drawn) [LA, alpha-lipoic acid]?
A: 24 hour raw pork loin pH (swine [2]; Line 1 ave., 500 ppm in diet): 6.00^b; 24 hour raw pork loin pH (swine [2]; Line 2 ave., 500 ppm in diet): 5.90^b; 24 hour raw pork loin pH (swine [2]; Line 3 ave., 500 ppm in diet): 5.99^c; 24 hour raw pork loin pH (swine [2]; Overall ave. of three genetic lines, 500 ppm in diet): 5.99^b; 24 hour raw pork loin pH, Increase vs. Control (swine [2]; 500 ppm in diet): 0.20; raw pork loin color, Minolta L* value (swine [3]; Line 1 ave., 500 ppm in diet): 52.0; raw pork loin color, Minolta L* value (swine [3]; Line 2 ave., 500 ppm in diet): 50.9; raw pork loin color, Minolta L* value (swine [3]; Line 3 ave., 500 ppm in diet): 49.1; raw pork loin color, Minolta L* value (swine [3]; overall ave., 500 ppm in diet): 50.7; Color Score (swine [4]): decrease; Loin pH (swine [4]): increase
